Among the data in patent US10221139B2, “Inhibitors of histone demethylases” (Gilead Sciences, Inc., priority 2012, dated 2019) are IC50 values, retold here.

What is called IC50 is the concentration at which inhibition is half-maximal. A higher IC50 goes with a need for much substance.

Structures are written as SMILES.

Test [1] addresses T1, GASC1 (KDM4C) (Homo sapiens, UniProt Q9H3R0).
T1 construct: Full length; host or cells: U2OS
T1 sequence (Q9H3R0 1-1056): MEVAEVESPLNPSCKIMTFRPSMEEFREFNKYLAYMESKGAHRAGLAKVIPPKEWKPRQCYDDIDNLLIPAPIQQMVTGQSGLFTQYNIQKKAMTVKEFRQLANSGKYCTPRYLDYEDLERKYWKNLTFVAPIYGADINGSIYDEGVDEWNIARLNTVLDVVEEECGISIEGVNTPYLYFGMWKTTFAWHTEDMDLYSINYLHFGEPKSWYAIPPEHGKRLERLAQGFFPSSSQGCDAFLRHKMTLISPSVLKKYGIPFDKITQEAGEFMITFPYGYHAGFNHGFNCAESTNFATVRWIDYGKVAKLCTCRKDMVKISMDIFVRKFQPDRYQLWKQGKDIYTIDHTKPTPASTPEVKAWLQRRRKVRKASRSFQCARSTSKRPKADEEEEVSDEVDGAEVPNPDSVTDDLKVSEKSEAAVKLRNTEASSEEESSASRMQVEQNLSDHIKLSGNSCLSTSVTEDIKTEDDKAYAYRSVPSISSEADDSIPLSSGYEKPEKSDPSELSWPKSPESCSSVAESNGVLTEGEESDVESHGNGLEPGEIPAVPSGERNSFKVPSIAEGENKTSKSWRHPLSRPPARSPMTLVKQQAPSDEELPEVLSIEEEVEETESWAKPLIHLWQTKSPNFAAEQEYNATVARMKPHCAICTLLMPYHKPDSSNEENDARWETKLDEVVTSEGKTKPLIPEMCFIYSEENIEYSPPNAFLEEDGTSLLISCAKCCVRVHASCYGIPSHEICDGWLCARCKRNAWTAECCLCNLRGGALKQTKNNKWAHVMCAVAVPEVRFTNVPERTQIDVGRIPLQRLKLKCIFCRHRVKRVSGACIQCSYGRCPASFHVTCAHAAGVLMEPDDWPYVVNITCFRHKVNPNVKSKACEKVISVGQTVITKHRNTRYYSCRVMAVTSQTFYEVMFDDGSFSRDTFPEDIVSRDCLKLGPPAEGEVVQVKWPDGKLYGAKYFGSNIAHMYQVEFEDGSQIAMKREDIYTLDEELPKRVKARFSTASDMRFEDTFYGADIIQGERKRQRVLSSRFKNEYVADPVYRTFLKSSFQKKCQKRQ
The test is described as follows: Immunofluorescence assay in U2OS cells transfected with pCMVHA JMJD2C (H3K9me3 mark). Particulars: 20 hours. Type of test: cell-based. The method, then: (§1) U2OS cells were seeded 24 hours before transfection. Transfection was performed with Fugene HD transfection reagent as recommended by the manufacturer. 6 hours after transfection, the cells were harvested and seeded into multi well plates into media containing compound. The media used was DMEM containing 5% FBS and pen/strep. 20 hours after incubation of cells with compounds, the cells were washed once in PBS, harvested by fixation with formaldehyde 4% aqueous solution, and washed 2 times in PBS. Subsequently, the cells were permeabilized in PBS with 0.2% Triton X-100 for 10 min at room temperature. Blocking was performed in PBS with 0.2% Triton X-100 and 5% FBS for 45 min at room temperature. The cells were incubated with primary antibodies diluted 1 μg/ml in blocking solution over night at 4° C. The primary antibodies used in the assays were HA.11 (Covance, MMS-101P) and the antibody detecting the mark specified in the Table 6 below. After incubation with primary antibodies, the cells were washed 3 times with PBS, incubated with secondary antibodies diluted 1:1000 (Alexa fluor 594 goat anti rabbit IgG, Invitrogen, A11012; Alexa flour 488 donkey anti mouse IgG, Invitrogen, A21202) and Hoechst, 20 μg/ml (Sigma, 33342) in blocking solution, and washed again 3 times with PBS. Finally, PBS was added and high throughput imaging and analysis were performed by an IN Cell Analyzer 1000 (GE Healthcare). The robot software analyzed individual cells and divided these into HA^+ (transfected cells) and HA^− (non-transfected cells). The IC50 values in Table 7 below were based on an average measure of the staining of the mark specified in the Table 6 below in the transfected cells.

The target in test [2] is T2, PLU1 (KDM5B) (Homo sapiens, UniProt Q9UGL1).
T2 construct: (1-752); host or cells: U2OS
T2 sequence (Q9UGL1 1-752): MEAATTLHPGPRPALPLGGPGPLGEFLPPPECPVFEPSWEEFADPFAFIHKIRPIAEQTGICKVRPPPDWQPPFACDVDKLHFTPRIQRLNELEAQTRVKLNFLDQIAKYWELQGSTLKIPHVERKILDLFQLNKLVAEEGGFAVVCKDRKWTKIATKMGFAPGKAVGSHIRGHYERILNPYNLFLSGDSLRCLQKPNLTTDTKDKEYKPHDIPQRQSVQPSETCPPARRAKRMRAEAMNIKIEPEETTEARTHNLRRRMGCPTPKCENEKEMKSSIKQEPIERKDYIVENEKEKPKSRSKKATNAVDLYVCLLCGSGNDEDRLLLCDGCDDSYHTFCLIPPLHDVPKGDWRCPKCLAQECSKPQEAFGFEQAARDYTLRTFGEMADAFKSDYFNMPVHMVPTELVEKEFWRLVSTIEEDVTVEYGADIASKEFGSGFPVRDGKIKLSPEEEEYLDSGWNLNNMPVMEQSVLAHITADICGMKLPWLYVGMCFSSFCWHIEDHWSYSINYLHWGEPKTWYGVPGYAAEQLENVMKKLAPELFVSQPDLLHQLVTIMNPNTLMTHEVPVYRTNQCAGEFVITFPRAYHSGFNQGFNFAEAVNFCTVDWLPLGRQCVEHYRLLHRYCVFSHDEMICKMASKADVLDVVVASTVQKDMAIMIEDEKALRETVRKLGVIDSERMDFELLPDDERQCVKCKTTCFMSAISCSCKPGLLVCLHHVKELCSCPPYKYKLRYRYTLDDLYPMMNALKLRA
The test is described as follows: Immunofluorescence assay in U2OS cells transfected with pCMVHA PLU1 (H3K4me2 mark). It counts as cell-based. Conditions: 20 hours. The method, then: as §1

For the compound `CN(CCCNCc1cc(C(=O)O)ccn1)Cc1ccccc1F` [drawing 322, 2-{[(3-{[(2-fluorophenyl)methyl](methyl)amino}propyl)amino]methyl}pyridine-4-carboxylic acid], the results for the IC50 in test [1] and in test [2] were greater than 50000 nM and 1000 to 50000 nM, respectively.

Regarding `O=C(O)c1ccnc(CNCCCN2CCCC2)c1` [drawing 325, 2-({[3-(pyrrolidin-1-yl)propyl]amino}methyl)pyridine-4-carboxylic acid], the IC50 in test [1] and in test [2] was 1000 to 50000 nM each time.

For `COC(=O)c1ccnc(CNCCCN2CCCC2)c1` [drawing 326, methyl 2-({[3-(pyrrolidin-1-yl)propyl]amino}methyl) pyridine-4-carboxylate], the IC50 in test [1] and in test [2] was 1000 to 50000 nM each time.

`CCN(CC)CCCCNCc1cc(C(=O)O)ccn1` [drawing 327, 2-({[4-(diethylamino)butyl]amino}methyl)pyridine-4-carboxylic acid]: the IC50 in test [1] and in test [2] was 1000 to 50000 nM in each case.

Turning to `CCN(CC)CCCCNCc1cc(C(=O)Oc2ccc(OC)cc2)ccn1` [drawing 329, 4-methoxyphenyl 2-({[4-(diethylamino)butyl]amino}methyl)pyridine-4-carboxylate], the IC50 in test [1] is 1000 to 50000 nM; in test [2], less than 1000 nM.

On to `CCOC(=O)c1ccccc1OC(=O)c1ccnc(CNCCCCN(CC)CC)c1` [drawing 330, 2-(ethoxycarbonyl) phenyl 2-({[4-(diethylamino)butyl]amino}methyl)pyridine-4-carboxylate], for which the figures for the IC50 in test [1] and in test [2] were 1000 to 50000 nM and less than 1000 nM, respectively.

Consider `CCN(CC)CCCCNCc1cc(C(=O)OCCN(C)C)ccn1` [drawing 331, 2-(dimethylamino) ethyl 2-({[4-(diethylamino)butyl]amino}methyl)pyridine-4-carboxylate], for which the IC50 in test [1] and in test [2] was 1000 to 50000 nM each time.

For `CCN(CC)CCCCNCc1cc(C(=O)OCCCN(C)C)ccn1` [drawing 332, 3-(dimethylamino) propyl 2-({[4-(diethylamino)butyl]amino}methyl)pyridine-4-carboxylate], the half-maximal inhibitory concentration (IC50) in test [1] and in test [2] was 1000 to 50000 nM each time.
